According to PubChem BioAssay (NCI):
“And” between values parts separate entries of the source, which are not always exact repeats. Identical values can stand only once.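 Tested at 5 concentrations; 48 h exposure; 96-well plates; endpoints linearly interpolated, else capped at highest concentration. Abbreviation: GI50, concentration required for 50% inhibition of growth. The concentration for full growth arrest is given as TGI.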

How the values were obtained:
Test in all cases: NCI-60 cell line screen, 48 h
[1] = system: DLD-1 colon
[2] = system: DMS 114 small cell lung
[3] = system: HOP-18 NSCLC
[4] = system: KM20L2 colon
[5] = system: LXFL 529 NSCLC
[6] = system: M19-MEL melanoma
[7] = system: RXF-631 renal
[8] = system: SNB-78 CNS
[9] = system: MDA-N

SMILES | TGI [1] | TGI [2] | TGI [3] | TGI [4] | TGI [5] | TGI [6] | TGI [7] | TGI [8] | TGI [9] | also measured
COc1ccc2oc3c(OC)c(OC)c(OC)cc3c(=O)c2c1 | > 100 µM | > 100 µM | > 100 µM | > 100 µM | > 100 µM | > 100 µM | > 100 µM | > 100 µM | – | –
Cc1cc(-c2c(F)cc3c4nn([C@H]5CC[C@@H](N(C)C)CC5)c(=O)c-4cn(C4CC4)c3c2F)cc(C)n1 | 2.85 µM | 0.124 µM and 0.36 µM | 0.919 µM | 0.462 µM | 0.267 µM and 1.31 µM | 0.507 µM and 1.59 µM | 0.256 µM | 11.5 µM and 6.93 µM | 6.75 µM | GI50 [1]: 0.156 µM; GI50 [2]: 0.111 µM; GI50 [5]: 0.227 µM; GI50 [6]: 0.247 µM; GI50 [8]: 0.669 µM
COCCOc1cc(C)cc(/C=C(C)/C=C/C2=C(C)CCCC2(C)C)n1 | > 100 µM | > 100 µM | > 100 µM | – | > 100 µM | > 100 µM | > 100 µM | > 100 µM | – | –
CC(C)OC(=S)Nc1ccc(Cl)c(/C=N/OC(C)(C)C)c1 | – | – | – | – | – | – | – | – | 42 µM | –
NC1c2ccccc2Nc2ccccc21 | 17.1 µM | 12.5 µM | 39.7 µM | 14.3 µM | 17.5 µM | 13.9 µM | – | 37.3 µM | – | –
N#Cc1ccccc1NC(=O)C(=O)C1NC(=S)NC1=O (stereo unspecified) | > 100 µM | > 100 µM | > 100 µM | > 100 µM | > 100 µM | > 100 µM | – | – | – | –
COc1cc(/C=C/c2ccc(O)c(OC)c2)cc(OC)c1 | – | – | – | – | – | – | – | – | 46 µM | –
CC1OC(=O)C(O)=C1O (stereo unspecified) | – | – | > 100 µM | > 100 µM | > 100 µM | > 100 µM | – | > 100 µM | – | –
CC1=C(C(=O)Nc2ccccc2)C(c2ccccc2Cl)C(C(=O)Nc2ccccc2)=C(C)N1 | > 100 µM | – | 56.5 µM | 38.9 µM | 37.1 µM | 36 µM | > 100 µM | – | – | –
CC(C)c1cccc(C(C)C)c1N1C(=O)C(=O)C(c2nc3ccccc3o2)C(=O)C1=O | > 100 µM | 84.5 µM | – | > 100 µM | > 100 µM | > 100 µM | > 100 µM | > 100 µM | – | –
Cc1ccc2nc(NC(=O)C(=O)C(C#N)c3ccc(Cl)cc3)sc2c1 (stereo unspecified) | – | > 50 µM | > 50 µM | > 50 µM | > 50 µM | > 50 µM | – | > 50 µM | – | –
CCCCCC(O)C(O)CCC[C@H](O)[C@H]1CC[C@H]([C@H]2CC[C@H]([C@H](O)CCCCCCCCCCCCC3=C[C@H](C)OC3=O)O2)O1 (stereo partly specified) | – | – | – | – | – | – | – | – | 23.5 µM | GI50 [9]: 4.19 µM
O=[N+]([O-])c1ccc(Cl)c(CNc2ncnc3c2ncn3C2CCCCO2)c1 (stereo unspecified) | – | – | – | – | – | – | – | – | 27 µM | –
CN1Cc2ccccc2/C=C\c2ccccc21 | – | – | – | – | – | – | – | – | > 100 µM | –
C1CCCCc2nc3c(nc2CCC1)c1nc2c(nc1c1nc4c(nc31)CCCCCCCC4)CCCCCCCC2 | > 100 µM | – | > 100 µM | > 100 µM | > 100 µM | – | > 100 µM | > 100 µM | – | –
COc1ccc(C2=Nc3ccccc3SC(C)C2)cc1OC (stereo unspecified) | – | 34.8 µM | – | 33.6 µM | 32 µM | – | > 100 µM | 66.7 µM | – | –
Cc1ccc(N=C[N-]c2ccc(C)cc2)cc1.Cc1ccc(N=C[N-]c2ccc(C)cc2)cc1.O=C([O-])C(F)(F)F.O=C([O-])C(F)(F)F.[OH3+].[OH3+].[Rh+2].[Rh+2] | > 100 µM | > 100 µM | 71.4 µM | > 100 µM | 74.2 µM | 89.4 µM | > 100 µM | > 100 µM | – | GI50 [1]: 56.7 µM; GI50 [2]: 38.4 µM; GI50 [3]: 27.7 µM; GI50 [4]: 39.9 µM; GI50 [5]: 28.4 µM; GI50 [6]: 33.3 µM; GI50 [7]: > 100 µM; GI50 [8]: 53.3 µM
Cc1ccc(NC(=O)C(=O)CC(=O)c2c(C)n([O-])c3ccccc3[n+]2=O)cc1C | – | – | > 100 µM | > 100 µM | > 100 µM | > 100 µM | – | > 100 µM | – | –
CCC(C)CC(C)CC(C)/C=C(\C)C1=C(C)CC(C)(O)O1 (stereo unspecified) | > 100 µM | > 100 µM | > 100 µM | – | > 100 µM | > 100 µM | > 100 µM | > 100 µM | – | –
COC1=CC(C2c3cc4c(cc3[C@@H](Nc3ccc(F)cc3)C3COC(=O)[C@H]23)OCO4)=CC(=O)C1=O (stereo partly specified) | > 100 µM | – | – | > 74.6 µM | 16.3 µM | 55.7 µM | – | > 96.4 µM | – | –
C/C(CN1C(=O)c2ccccc2C1=O)=N\NS(=O)(=O)c1cccc(C(=O)O)c1 | > 100 µM | > 100 µM | > 100 µM | > 100 µM | > 100 µM | > 100 µM | > 100 µM | > 100 µM | – | –

SMILES | TGI [1] | TGI [2] | TGI [3] | TGI [4] | TGI [5] | TGI [6] | TGI [7] | TGI [8] | TGI [9] | also measured
Nc1nc2c(C(=O)NCc3cccs3)nnn2c2cccc(Cl)c12 | – | – | – | – | – | – | – | – | > 100 µM | –
O=C(NC(=O)c1c(Cl)nc2sccn12)Nc1ccc(Cl)cc1 | > 100 µM | > 100 µM | – | > 100 µM | – | > 100 µM | > 100 µM | > 100 µM | > 100 µM | –
O=C(O)CCNS(=O)(=O)c1ccc2ccccc2c1 | > 100 µM | – | > 100 µM | > 100 µM | > 100 µM | > 100 µM | – | – | – | –
CN(C)CC1CC/C(=C\c2ccc3c(c2)OCO3)C1=O (stereo unspecified) | 40.3 µM | 37.3 µM | 29.7 µM | 36.5 µM | 25.4 µM | 35.5 µM | 31.2 µM | 51 µM | 15.6 µM | –
CCC[CH2][Sn]([CH2]CCC)([S]C#N)[S]C#N | 2.23 µM | 2.68 µM | 2.44 µM | 3.6 µM | 0.749 µM | 5.04 µM | 1.43 µM | 2.51 µM | – | GI50 [1]: 0.999 µM; GI50 [2]: 0.506 µM; GI50 [3]: 1.21 µM; GI50 [4]: 1.78 µM; GI50 [5]: 0.122 µM; GI50 [6]: 0.909 µM; GI50 [7]: 0.329 µM; GI50 [8]: 0.663 µM
C#CC1=CC(=O)C(OC)=CC1=O | – | – | – | – | – | – | – | – | 37.6 µM | –
C1CN(c2nnc(N3CCC3)nn2)C1 | > 100 µM | 43.6 µM | > 100 µM | > 63.7 µM | 44 µM | 29.4 µM | – | > 100 µM | 31 µM | –
CC(C)c1cc(C(C)C)c(S(=O)(=O)N=[N+]=[N-])c(C(C)C)c1 | > 100 µM | – | – | > 100 µM | > 100 µM | > 100 µM | > 100 µM | – | – | –
Cc1ccc(C)c(N2C(=O)C(=O)C(c3nc4ccccc4o3)C(=O)C2=O)c1 | 65.6 µM | > 100 µM | > 100 µM | > 100 µM | > 100 µM | > 100 µM | > 100 µM | > 100 µM | – | –
O=C(O)/C(Cc1cn[nH]n1)=N\O | – | – | – | – | – | – | – | – | > 100 µM | –
CC1=C(SC#N)S(=O)(=O)N(c2ccccc2)C(C)=C1SC#N | > 100 µM | 38.3 µM | – | – | > 100 µM | > 100 µM | – | > 100 µM | – | –
O=C(C(=O)n1ncc(Cl)c(Cl)c1=O)n1ncc(Cl)c(Cl)c1=O | 32.4 µM | > 62.8 µM | 67 µM | > 85.8 µM | 41.8 µM | 48.7 µM | > 100 µM | 88.2 µM | – | –
S=C1Cc2c(-c3ccc(Br)cc3)cc(-c3ccccc3)nc2-c2ccccc2N1 | – | – | – | – | – | – | – | – | 9.03 µM | –
O=C(O)/C(Cc1ccnc2ccccc12)=N\O | – | – | – | – | – | – | – | – | > 100 µM | –
COc1ccc2nc(C(=O)c3ccccc3)c(C)cc2c1 | > 66.7 µM | 20.5 µM | > 52 µM | 11 µM | > 100 µM | > 37.7 µM | > 100 µM | > 100 µM | – | –
COc1ccccc1NC(=O)C1=C(C)NC(C)=C(C(=O)Nc2ccccc2OC)C1/C=C/c1ccccc1 | > 100 µM | > 100 µM | > 100 µM | > 100 µM | > 100 µM | > 100 µM | – | > 100 µM | – | –
N#CC(C(=O)CCCC(=O)Nc1ccc(Cl)cc1Cl)c1ccccc1 (stereo unspecified) | > 100 µM | > 100 µM | > 100 µM | > 100 µM | – | > 100 µM | > 100 µM | > 100 µM | – | –
CCOC(=O)c1cc(-c2ccc(-c3cc(C(=O)OCC)c(C#N)c(N)c3C#N)cc2)c(C#N)c(N)c1C#N | > 100 µM | > 100 µM | > 100 µM | > 100 µM | > 100 µM | > 100 µM | > 100 µM | > 100 µM | – | –
CCOC(=O)/C(=C/c1cccc(Cl)c1)N(CC)CC | > 100 µM | > 100 µM | 84.6 µM | – | > 100 µM | > 100 µM | – | – | – | –
Cc1c(C(=O)O)n(C)c(=O)n(C)c1=O | > 100 µM | – | > 100 µM | > 100 µM | > 100 µM | > 100 µM | – | – | – | –
CCOC(=O)C(Cc1ccc(N(CCCl)CCCl)cc1)NC(=O)C(Cc1ccccc1)NC=O (stereo unspecified) | – | – | – | – | – | – | – | – | 0.338 µM | –
